One test relates to Escherichia coli. Description: Poison Plate Assay (Experiment 1), Escherichia coli. Conditions: for MIC-values (minimum inhibitory concentration): ppm total active ingredient, Tryptose Agar, 27° C., evaluation after one week.
The subject of test [1] is Streptomyces griseus (g+). Description: Poison Plate Assay (Experiment 2), Streptomyces griseus. The format is cell-based. Conditions: 120 h, Table 3, pyrimethanil with Microsil™, ppm total active ingredient, Tryptose Agar, 27° C., evaluation after 5 days, read-out: MIC-values (minimum inhibitory concentration). From the text: [formula] wherein: • QA is the concentration of compound A in ppm, acting alone, which produced an end point (e.g. MIC), • Qa is the concentration of compound A in ppm, in the mixture, which produced an end point (e.g. MIC), • QB is the concentration of compound B in ppm, acting alone, which produced an end point (e.g. MIC), • Qb is the concentration of compound B in ppm, in the mixture, which produced an end point (e.g. MIC). When the Synergy Index is greater than 1.0, antagonism is indicated. When the SI is equal to 1.0, additivity is indicated.
Experiment 2: Poison Plate Assay • Name of the primary compound: —pyrimethanil (I) • Name of the silver salt: —Microsil™ from Avecom (Bloemendalestraat 138, 8730 Beernem, Belgium) • Microsil™ is a suspension of colloidal silver metal particles, produced by and clustered on probiotic bacteria. The diameter of the silver particles varies between 3 to 20 nm. The oxidation state of the silver in Microsil™ is 0 (Ag^0). • Microsil™ is produced as a suspension of finely dispersed colloidal Ag^0 particles, stabilized on a biological carrier molecule, in water. The probiotic carrier exists only as a non-viable and stabilizing biocomponent. • Stock solution: 1000 ppm in DMSO • Test combinations: […]

The test system of the next test is Rhodoturula rubra. Description: Poison Plate Assay (Experiment 1), Rhodoturula rubra. The settings on record: for MIC-values (minimum inhibitory concentration): ppm total active ingredient, Glucose Agar, 22° C., evaluation after two weeks.
The next test deals with Aspergillus versicolor. Description: Poison Plate Assay (Experiment 1), Aspergillus versicolor. Conditions: ppm total active ingredient, Glucose Agar, 22° C., evaluation after two weeks; for MIC: Aspergillus versicolor, 336 h.
Setting [2] is: Table 2, pyrimethanil with silver perchlorate.
The mark [3] stands for this setting: Table 1, pyrimethanil with silver nitrate.

SMILES strings stand for the structures. In brackets after ≈: the same amount, converted by molar mass. Where two headings read alike, the source gives them in different places.

`Cc1cc(C)nc(Nc2ccccc2)n1` [pyrimethanil, 4,6-dimethyl-N-phenyl-2-pyrimidinamine]: the MIC is 667 µg/mL (≈ 3350 µM) with Escherichia coli (Escherichia coli, 168 h, read-out: MIC-values (minimum inhibitory concentration)); 66.7 µg/mL in test [1]; 281 µg/mL (≈ 1410 µM) in the test on Rhodoturula rubra (336 h, read-out: MIC-values (minimum inhibitory concentration)); 667 µg/mL (≈ 3350 µM) with Aspergillus versicolor (read-out: MIC-values (minimum inhibitory concentration), Table 1, pyrimethanil with silver nitrate); 375 µg/mL (≈ 1880 µM) in the test with Aspergillus versicolor (read-out: MIC-values (minimum inhibitory concentration), Table 2, pyrimethanil with silver perchlorate). In addition, the “MIC-values (minimum inhibitory concentration)” value against Escherichia coli (setting [2]) came out at 666.67 ppm; in the test on Rhodoturula rubra (setting [2]), 281.25 ppm.

As for `O=[N+]([O-])[O-].[Ag+]` [silver nitrate], the “MIC-values (minimum inhibitory concentration)” value against Escherichia coli (setting [3]) is given as 66.67 ppm; in the test with Rhodoturula rubra (setting [3]) it was 118.65 ppm; with Aspergillus versicolor (setting [3]) it was 118.65 ppm.

The values above are taken from patent US8852647B2, “Combinations of pyrimethanil and silver compounds” (Janssen Pharmaceutica, NV, priority 2007, dated 2014).
